Test results reported in US11236095B2 (priority 2007, dated 2022).

Test: Human dose prediction (human PK parameter estimation)
Conditions: plasma, read-out: half-life, estimated (human) (converted)

NC1(C(=O)N[C@@H](CCO)c2ccc(Cl)cc2)CCN(c2ncnc3[nH]ccc23)CC1 [Example 9, (S)-4-amino-N-(1-(4-chlorophenyl)-3-hydroxypropyl)-1-(7H-pyrrolo[2,3-d]pyrimidin-4-yl)piperidine-4-carboxamide]
half-life: ~6 h
